# Results: US20230040182A1, “ARYL HETEROBICYCLIC COMPOUNDS AS Kv1.3 POTASSIUM SHAKER CHANNEL BLOCKERS” (priority 2019, published 2023)
# Biological target: T1, Kv1.3 potassium channel (Homo sapiens, UniProt P22001)
# T1 construct: expressed in transfected cells
# Assay: Kv1.3 potassium channel blocker activity, automated whole-cell patch clamp (Patchliner)
# Format: cell-based
# Details: CHO-K1 cells stably expressing Kv1.3; whole-cell current, Hill fit
# Method: Example 9. Evaluation of Kv1.3 Potassium Channel Blocker Activities
# This assay is used to evaluate the disclosed compounds' activities as Kv1.3 potassium channel blockers.
# CHO-K1 cells stably expressing Kv1.3 were grown in DMEM containing 10% heat-inactivated FBS, 1 mM Sodium Pyruvate, 2 mM L-Glutamine and G418 (500 μg/ml). Cells were grown in culture flasks at 37° C. in a […] incubator.
# The cells were bathed in an extracellular solution containing 140 mM NaCl, 4 mM KCl, 2 mM CaCl2, 1 mM MgCl2, 5 mM Glucose, 10 mM HEPES; pH adjusted to 7.4 with NaOH; 295-305 mOsm. The internal solution contained 50 mM KCl, 10 mM NaCl, 60 mM KF, 20 mM EGTA, 10 mM HEPES; pH adjusted to 7.2 with KOH; 285 mOsm. All compounds were dissolved in DMSO at 30 mM. Compound stock solutions were freshly diluted with external solution to concentrations of 30 nM, 100 nM, 300 nM, 1 μM, 3 μM, 10 μM, 30 μM and 100 μM. The highest content of DMSO (0.3%) was present in 100 μM.
# The currents were evoked by applying 100 ms depolarizing pulses from −90 mV (holding potential) to +40 mV were applied with 0.1 Hz frequency. Control (compound-free) and compound pulse trains for each compound concentration applied contained 20 pulses. 10-second breaks were used between pulse trains (see Table A below).
# Whole-cell current recordings and compound application were enabled by means of an automated patch clamp platform Patchliner (Nanion Technologies GmbH). EPC 10 patch clamp amplifier (HEKA Elektronik Dr. Schulze GmbH) along with Patchmaster software (HEKA Elektronik Dr. Schulze GmbH) was used for data acquisition. Data were sampled at 10 kHz without filtering. Passive leak currents were subtracted online using a P/4 procedure (HEKA Elektronik Dr. Schulze GmbH). Increasing compound concentrations were applied consecutively to the same cell without washouts in between. Total compound incubation time before the next pulse train was not longer than 10 seconds. Peak current inhibition was observed during compound equilibration.
# AUC and peak values were obtained with Patchmaster (HEKA Elektronik Dr. Schulze GmbH). To determine IC50, the last single pulse in the pulse train corresponding to a given compound concentration was used. Obtained AUC and peak values in the presence of compound were normalized to control values in the absence of compound. Using Origin (OridinLab), IC50 was derived from data fit to Hill equation: Icompound/Icontrol=(100−A)/(1+([compound]/IC50)nH)+A, where IC50 value is the concentration at which current inhibition is half-maximal, [compound] is the applied compound concentration, A is the fraction of current that is not blocked and nH is the Hill coefficient.
# T1 sequence (P22001 whole entry): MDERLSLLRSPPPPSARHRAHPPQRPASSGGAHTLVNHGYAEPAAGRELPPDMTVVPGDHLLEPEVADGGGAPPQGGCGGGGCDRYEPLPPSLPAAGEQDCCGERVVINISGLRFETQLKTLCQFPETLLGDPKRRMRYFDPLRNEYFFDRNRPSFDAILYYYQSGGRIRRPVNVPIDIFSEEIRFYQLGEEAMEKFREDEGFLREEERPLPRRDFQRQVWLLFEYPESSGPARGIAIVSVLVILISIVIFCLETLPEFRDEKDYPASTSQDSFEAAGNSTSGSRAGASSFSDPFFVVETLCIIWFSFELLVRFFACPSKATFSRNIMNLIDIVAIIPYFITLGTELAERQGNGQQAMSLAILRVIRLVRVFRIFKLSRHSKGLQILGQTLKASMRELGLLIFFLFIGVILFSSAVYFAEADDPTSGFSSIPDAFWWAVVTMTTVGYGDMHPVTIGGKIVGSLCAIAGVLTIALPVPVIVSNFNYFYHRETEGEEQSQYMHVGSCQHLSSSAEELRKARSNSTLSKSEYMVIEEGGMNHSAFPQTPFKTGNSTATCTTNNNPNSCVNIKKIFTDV
row,Structure (SMILES),IC50 [µM]
1,"Cc1ccc(O)c([C@@H]2CCN3C(=O)[C@@H](CO)NC(=O)[C@@H]3C2)c1Cl (relative stereo) [Compound 28, (8R,9aS)-rel-8-(2-chloro-6-hydroxy-3-methylphenyl)-3-((3R)-hydroxymethyl)-hexahydro-2H-pyrido[1,2-a]pyrazine-1,4-dione]",< 1
2,"NC[C@H]1NC(=O)[C@@H]2C[C@H](c3c(O)ccc(Cl)c3Cl)CCN2C1=O (relative stereo) [Compound 38, (8R,9aS)-rel-3-((3R)-aminomethyl)-8-(2,3-dichloro-6-hydroxyphenyl)-hexahydro-2H-pyrido[1,2-a]pyrazine-1,4-dione; trifluoroacetic acid]",< 1
3,"Cc1c(Cl)ccc(O)c1[C@@H]1CCN2C(=O)[C@@H](CO)NC(=O)[C@@H]2C1 (relative stereo) [Compound 49, (8R,9aS)-rel-8-(3-chloro-6-hydroxy-2-methylphenyl)-3-((3R)-hydroxymethyl)-hexahydro-2H-pyrido[1,2-a]pyrazine-1,4-dione]",< 10
4,"O=C1NC(=O)N2CC[C@@H](c3c(O)ccc(Cl)c3Cl)C[C@@H]12 (single isomer, unassigned; diastereoisomer 2) [Compound 19, 7-(2,3-dichloro-6-hydroxyphenyl)tetrahydro-imidazo[1,5-a]pyridine-1,3(2H,5H)-dione diastereoisomer 2]",< 1
5,"O=C1[C@H]2C[C@H](O)CN2C(=O)[C@H]2C[C@@H](c3c(O)ccc(Cl)c3Cl)CCN12 (single isomer, unassigned; isomer 1) [Compound 23, 7-(2,3-dichloro-6-hydroxyphenyl)-2-hydroxyhexahydro-1H-pyrido[1,2-a]pyrrolo[1,2-d]pyrazine-5,11(5aH,11aH)-dione isomer 1]",< 10
6,"O=C1[C@@H]2C[C@H](c3c(O)ccc(Cl)c3Cl)CCN2C(=O)[C@@H]2[C@H](O)CCN12 (single isomer, unassigned; isomer 1) [Compound 29, 7-(2,3-dichloro-6-hydroxyphenyl)-1-hydroxyhexahydro-1H-pyrido[1,2-a]pyrrolo[1,2-d]pyrazine-5,11(5aH,11aH)-dione isomer 1]",< 10
7,"O=C1[C@H]2[C@H](O)CCN2C(=O)[C@H]2C[C@@H](c3c(O)ccc(Cl)c3Cl)CCN12 (single isomer, unassigned; isomer 2) [Compound 17, 7-(2,3-dichloro-6-hydroxyphenyl)-1-hydroxyhexahydro-1H-pyrido[1,2-a]pyrrolo[1,2-d]pyrazine-5,11(5aH,11aH)-dione isomer 2]",< 1
8,"O=C1[C@H]2C[C@@H](c3c(O)ccc(Cl)c3Cl)CCN2C(=O)CN1C1CC(O)C1 (single isomer, unassigned; isomer 3) [Compound 34, 8-(2,3-dichloro-6-hydroxyphenyl)-2-[3-hydroxycyclobutyl]-hexahydropyrido[1,2-a]pyrazine-1,4-dione isomer 3]",< 10
9,"O=C1[C@@H]2C[C@H](O)CN2C(=O)[C@H]2C[C@@H](c3c(O)ccc(Cl)c3Cl)CCN12 (single isomer, unassigned; isomer 3) [Compound 45, 7-(2,3-dichloro-6-hydroxyphenyl)-2-hydroxyhexahydro-1H-pyrido[1,2-a]pyrrolo[1,2-d]pyrazine-5,11(5aH,11aH)-dione isomer 3]",< 10
10,"O=C1[C@H]2[C@H](O)CCN2C(=O)[C@@H]2C[C@H](c3c(O)ccc(Cl)c3Cl)CCN12 (single isomer, unassigned; isomer 3) [Compound 69, 7-(2,3-dichloro-6-hydroxyphenyl)-1-hydroxyhexahydro-1H-pyrido[1,2-a]pyrrolo[1,2-d]pyrazine-5,11(5aH,11aH)-dione isomer 3]",< 1
11,"O=C1[C@H]2C[C@@H](c3c(O)ccc(Cl)c3Cl)CCN2C(=O)CN1C1CC(O)C1 (single isomer, unassigned; isomer 4) [Compound 5, 8-(2,3-dichloro-6-hydroxyphenyl)-2-[3-hydroxycyclobutyl]-hexahydropyrido[1,2-a]pyrazine-1,4-dione isomer 4]",< 10
12,"C[C@@H]1NC(=O)C2CC(c3c(O)ccc(Cl)c3Cl)CCN2C1=O (stereo partly drawn) [Compound 4, (3S)-8-(2,3-dichloro-6-hydroxyphenyl)-3-methyl-octahydro-1H-pyrido[1,2-a]pyrazine-1,4-dione]",< 10
13,"O=C1[C@H]2C[C@@H](c3cc(Cl)c(Cl)cc3O)CCN2C(=O)CN1C1CNC1 [Compound 10, (8S,9aR)-2-(azetidin-3-yl)-8-(4,5-dichloro-2-hydroxyphenyl)hexahydro-4H-pyrido[1,2-a]pyrazine-1,4(6H)-dione]",< 10
14,"CC[C@H]1NC(=O)[C@H]2C[C@@H](c3c(O)ccc(Cl)c3Cl)CCN2C1=O [Compound 11, (8S,9aR)-8-(2,3-dichloro-6-hydroxyphenyl)-3-(3R)-ethyl-hexahydro-2H-pyrido[1,2-a]pyrazine-1,4-dione]",< 1
15,"CN1C(=O)[C@H]2C[C@@H](c3c(O)ccc(Cl)c3Cl)CCN2C(=O)[C@H]1CO [Compound 13, (3R,8S,9aR)-8-(2,3-dichloro-6-hydroxyphenyl)-3-(hydroxymethyl)-2-methyl-hexahydropyrido[1,2-a]pyrazine-1,4-dione]",< 30
16,"O=C1NNC(=O)N2CC[C@H](c3c(O)ccc(Cl)c3Cl)C[C@H]12 [Compound 15, (8S,9aR)-8-(2,3-dichloro-6-hydroxyphenyl)hexahydro-4H-pyrido[1,2-d][1,2,4]triazine-1,4(6H)-dione]",< 10
17,"C[C@@H](O)[C@H]1NC(=O)[C@H]2C[C@@H](c3c(O)ccc(Cl)c3Cl)CCN2C1=O [Compound 16, (3R,8S,9aR)-8-(2,3-dichloro-6-hydroxyphenyl)-3-[(1R)-1-hydroxyethyl]-hexahydro-2H-pyrido[1,2-a]pyrazine-1,4-dione]",< 10
18,"O=C1[C@H]2C[C@@H](c3c(O)ccc(Cl)c3Cl)CCN2C(=O)CN1C(CO)CO [Compound 21, (8S,9aR)-8-(2,3-dichloro-6-hydroxyphenyl)-2-(1,3-dihydroxypropan-2-yl)hexahydro-4H-pyrido[1,2-a]pyrazine-1,4(6H)-dione]",< 10
19,"O=C1[C@H]2[C@@H](O)CCN2C(=O)[C@H]2C[C@@H](c3c(O)ccc(Cl)c3Cl)CCN12 [Compound 25, (1S,5aR,7S,11aR)-7-(2,3-dichloro-6-hydroxyphenyl)-1-hydroxyhexahydro-1H-pyrido[1,2-a]pyrrolo[1,2-d]pyrazine-5,11(5aH,11aH)-dione]",< 10
20,"NN1C(=O)[C@H]2C[C@@H](c3c(O)ccc(Cl)c3Cl)CCN2C1=O [Compound 27, (7S,8aR)-2-amino-7-(2,3-dichloro-6-hydroxyphenyl)tetrahydro-imidazo[1,5-a]pyridine-1,3(2H,5H)-dione]",< 1
21,"O=C1N[C@H](CO)C(=O)N2CC(c3c(O)ccc(Cl)c3Cl)CC12 (stereo partly drawn) [Compound 31, (3R)-7-(2,3-dichloro-6-hydroxyphenyl)-3-(hydroxymethyl)hexahydro-pyrrolo[1,2-a]pyrazine-1,4-dione]",< 1
22,"O=C1NNC(=O)N2CC[C@@H](c3c(O)ccc(Cl)c3Cl)C[C@@H]12 [Compound 33, (8R,9aS)-8-(2,3-dichloro-6-hydroxyphenyl)hexahydro-4H-pyrido[1,2-d][1,2,4]triazine-1,4(6H)-dione]",< 1
23,"O=C1[C@H]2C[C@@H](c3c(O)ccc(Cl)c3Cl)CCN2C(=O)CN1CCO [Compound 37, (8S,9aR)-8-(2,3-dichloro-6-hydroxyphenyl)-2-(2-hydroxyethyl)-hexahydropyrido[1,2-a]pyrazine-1,4-dione]",< 10
24,"CC(C)[C@@H](O)[C@@H]1NC(=O)[C@H]2C[C@@H](c3c(O)ccc(Cl)c3Cl)CCN2C1=O [Compound 39, (3S,8S,9aR)-8-(2,3-dichloro-6-hydroxyphenyl)-3-[(1R)-1-hydroxy-2-methylpropyl]-hexahydro-2H-pyrido[1,2-a]pyrazine-1,4-dione]",< 10
25,"O=C1[C@@H]2C[C@H](c3c(O)ccc(Cl)c3Cl)CCN2C(=O)[C@H]2CC(O)CCN12 (stereo partly drawn) [Compound 40, (2R,6aR,12aS)-2-(2,3-dichloro-6-hydroxyphenyl)-8-hydroxyoctahydro-dipyrido[1,2-a:1′,2′-d]pyrazine-6,12(2H,6aH)-dione]",< 1
